# Tested on: patients with advanced or metastatic solid tumors
# Test: Trial 1403-0001 Phase Ia dose escalation, Arm B (D1 D8 q4w): adverse events
# Assay type: in vivo
# Settings: for AEs leading to Discontinuation: Dose limiting toxicity, % / AEs leading to Discontinuation: Other adverse event, % / Patients with Dose limiting toxicity, % / Serious AEs: Cogenital Anomaly or Birth Defect, % / Serious AEs: Is Life Threatening, % / Serious AEs: Other Medically Important Serious Event, % / Serious AEs: Persists of Signif. Disability/Incapacity, % / Serious AEs: Requires or Prolongs Hospitalization, % / Serious AEs: Results in Death, % / Subjects with AEs leading to Discontinuation of trial drug, % / Subjects with AEs leading to dose reduction of trial drug, % / Subjects with any AE, % / Subjects with investigator defined drug-related AEs, % / Subjects with maximum CTC Grade 1, % / Subjects with maximum CTC Grade 2, % / Subjects with maximum CTC Grade 3, % / Subjects with maximum CTC Grade 4, % / Subjects with maximum CTC Grade 5, % / Subjects with serious AEs, %: Arm B D1 D8 q4w
# Method: The Phase Ia dose escalation part aimed to define the Maximum Tolerated Dose (MTD) and the Recommended Dose for Expansion (RDE) for the MDM2-antagonist of formula I based on safety and tolerability, pharmacokinetics, pharmacodynamics, and preliminary efficacy. The RDE will be further explored in the Phase Ib expansion part of the trial.
# Dose levels evaluated in Arm A were 10, 20, 30, 45, 50, 60, and 80 mg. Dose levels evaluated in Arm B (referring to the dose administered on Day 1 and Day 8) were 5, 10, 15, 20, 30, 45, and 60 mg.
smiles,measurement,setting,value
"Cc1c(C(=O)O)ccc2c3n(nc12)[C@@H]1[C@H](C3)N(CC2CC2)[C@@]2(C(=O)Nc3cc(Cl)ccc32)[C@H]1c1cccc(Cl)c1F [MDM2-antagonist of formula I, (2′S,3′S,3a'S,10a'S)-6-chloro-3′-(3-chloro-2-fluorophenyl)-1′-(cyclopropylmethyl)-6′-methyl-2-oxo-1,2,3′,3a′,10′,10a′-hexahydro-1′H-spiro[indole-3,2′-pyrrolo[2′,3′:4,5]pyrrolo[1,2-b]indazole]-7′-carboxylic acid]","AEs leading to Discontinuation: Dose limiting toxicity, %",5 mg,0%
same,"AEs leading to Discontinuation: Other adverse event, %",5 mg,0%
same,"Patients with Dose limiting toxicity, %",5 mg,0%
same,"Serious AEs: Cogenital Anomaly or Birth Defect, %",5 mg,0%
same,"Serious AEs: Is Life Threatening, %",5 mg,0%
same,"Serious AEs: Other Medically Important Serious Event, %",5 mg,0%
same,"Serious AEs: Persists of Signif. Disability/Incapacity, %",5 mg,0%
same,"Serious AEs: Requires or Prolongs Hospitalization, %",5 mg,0%
same,"Serious AEs: Results in Death, %",5 mg,0%
same,"Subjects with AEs leading to Discontinuation of trial drug, %",5 mg,0%
same,"Subjects with AEs leading to dose reduction of trial drug, %",5 mg,0%
same,"Subjects with any AE, %",5 mg,100%
same,"Subjects with investigator defined drug-related AEs, %",5 mg,33.3%
same,"Subjects with maximum CTC Grade 1, %",5 mg,66.7%
same,"Subjects with maximum CTC Grade 2, %",5 mg,33.3%
same,"Subjects with maximum CTC Grade 3, %",5 mg,0%
same,"Subjects with maximum CTC Grade 4, %",5 mg,0%
same,"Subjects with maximum CTC Grade 5, %",5 mg,0%
same,"Subjects with serious AEs, %",5 mg,0%
same,"AEs leading to Discontinuation: Dose limiting toxicity, %",10 mg,0%
same,"AEs leading to Discontinuation: Other adverse event, %",10 mg,0%
same,"Patients with Dose limiting toxicity, %",10 mg,0%
same,"Serious AEs: Cogenital Anomaly or Birth Defect, %",10 mg,0%
same,"Serious AEs: Is Life Threatening, %",10 mg,0%
same,"Serious AEs: Other Medically Important Serious Event, %",10 mg,0%
same,"Serious AEs: Persists of Signif. Disability/Incapacity, %",10 mg,0%
same,"Serious AEs: Requires or Prolongs Hospitalization, %",10 mg,33.3%
same,"Serious AEs: Results in Death, %",10 mg,0%
same,"Subjects with AEs leading to Discontinuation of trial drug, %",10 mg,0%
same,"Subjects with AEs leading to dose reduction of trial drug, %",10 mg,33.3%
same,"Subjects with any AE, %",10 mg,100%
same,"Subjects with investigator defined drug-related AEs, %",10 mg,100%
same,"Subjects with maximum CTC Grade 1, %",10 mg,0%
same,"Subjects with maximum CTC Grade 2, %",10 mg,33.3%
same,"Subjects with maximum CTC Grade 3, %",10 mg,66.7%
same,"Subjects with maximum CTC Grade 4, %",10 mg,0%
same,"Subjects with maximum CTC Grade 5, %",10 mg,0%
same,"Subjects with serious AEs, %",10 mg,33.3%
same,"AEs leading to Discontinuation: Dose limiting toxicity, %",15 mg,0%
same,"AEs leading to Discontinuation: Other adverse event, %",15 mg,0%
same,"Patients with Dose limiting toxicity, %",15 mg,0%
same,"Serious AEs: Cogenital Anomaly or Birth Defect, %",15 mg,0%
same,"Serious AEs: Is Life Threatening, %",15 mg,0%
same,"Serious AEs: Other Medically Important Serious Event, %",15 mg,0%
same,"Serious AEs: Persists of Signif. Disability/Incapacity, %",15 mg,0%
same,"Serious AEs: Requires or Prolongs Hospitalization, %",15 mg,33.3%
same,"Serious AEs: Results in Death, %",15 mg,0%
same,"Subjects with AEs leading to Discontinuation of trial drug, %",15 mg,0%
same,"Subjects with AEs leading to dose reduction of trial drug, %",15 mg,0%
same,"Subjects with any AE, %",15 mg,100%
same,"Subjects with investigator defined drug-related AEs, %",15 mg,100%
same,"Subjects with maximum CTC Grade 1, %",15 mg,33.3%
same,"Subjects with maximum CTC Grade 2, %",15 mg,66.7%
same,"Subjects with maximum CTC Grade 3, %",15 mg,0%
same,"Subjects with maximum CTC Grade 4, %",15 mg,0%
same,"Subjects with maximum CTC Grade 5, %",15 mg,0%
same,"Subjects with serious AEs, %",15 mg,33.3%
same,"AEs leading to Discontinuation: Dose limiting toxicity, %",20 mg,0%
same,"AEs leading to Discontinuation: Other adverse event, %",20 mg,0%
same,"Patients with Dose limiting toxicity, %",20 mg,0%
same,"Serious AEs: Cogenital Anomaly or Birth Defect, %",20 mg,0%
same,"Serious AEs: Is Life Threatening, %",20 mg,0%
same,"Serious AEs: Other Medically Important Serious Event, %",20 mg,33.3%
same,"Serious AEs: Persists of Signif. Disability/Incapacity, %",20 mg,0%
same,"Serious AEs: Requires or Prolongs Hospitalization, %",20 mg,33.3%
same,"Serious AEs: Results in Death, %",20 mg,0%
same,"Subjects with AEs leading to Discontinuation of trial drug, %",20 mg,0%
same,"Subjects with AEs leading to dose reduction of trial drug, %",20 mg,0%
same,"Subjects with any AE, %",20 mg,100%
same,"Subjects with investigator defined drug-related AEs, %",20 mg,100%
same,"Subjects with maximum CTC Grade 1, %",20 mg,0%
same,"Subjects with maximum CTC Grade 2, %",20 mg,66.7%
same,"Subjects with maximum CTC Grade 3, %",20 mg,33.3%
same,"Subjects with maximum CTC Grade 4, %",20 mg,0%
same,"Subjects with maximum CTC Grade 5, %",20 mg,0%
same,"Subjects with serious AEs, %",20 mg,33.3%
same,"AEs leading to Discontinuation: Dose limiting toxicity, %",30 mg,0%
same,"AEs leading to Discontinuation: Other adverse event, %",30 mg,0%
same,"Patients with Dose limiting toxicity, %",30 mg,0%
same,"Serious AEs: Cogenital Anomaly or Birth Defect, %",30 mg,0%
same,"Serious AEs: Is Life Threatening, %",30 mg,0%
same,"Serious AEs: Other Medically Important Serious Event, %",30 mg,25.0%
same,"Serious AEs: Persists of Signif. Disability/Incapacity, %",30 mg,0%
same,"Serious AEs: Requires or Prolongs Hospitalization, %",30 mg,0%
same,"Serious AEs: Results in Death, %",30 mg,0%
same,"Subjects with AEs leading to Discontinuation of trial drug, %",30 mg,0%
same,"Subjects with AEs leading to dose reduction of trial drug, %",30 mg,50%
same,"Subjects with any AE, %",30 mg,100%
same,"Subjects with investigator defined drug-related AEs, %",30 mg,100%
same,"Subjects with maximum CTC Grade 1, %",30 mg,50.0%
same,"Subjects with maximum CTC Grade 2, %",30 mg,25.0%
same,"Subjects with maximum CTC Grade 3, %",30 mg,0%
same,"Subjects with maximum CTC Grade 4, %",30 mg,25.0%
same,"Subjects with maximum CTC Grade 5, %",30 mg,0%
same,"Subjects with serious AEs, %",30 mg,25.0%
same,"AEs leading to Discontinuation: Dose limiting toxicity, %",45 mg,0%
same,"AEs leading to Discontinuation: Other adverse event, %",45 mg,16.7%
same,"Patients with Dose limiting toxicity, %",45 mg,16.7%
same,"Serious AEs: Cogenital Anomaly or Birth Defect, %",45 mg,0%
same,"Serious AEs: Is Life Threatening, %",45 mg,0%
same,"Serious AEs: Other Medically Important Serious Event, %",45 mg,16.7%
same,"Serious AEs: Persists of Signif. Disability/Incapacity, %",45 mg,16.7%
same,"Serious AEs: Requires or Prolongs Hospitalization, %",45 mg,33.3%
same,"Serious AEs: Results in Death, %",45 mg,0%
same,"Subjects with AEs leading to Discontinuation of trial drug, %",45 mg,16.7%
same,"Subjects with AEs leading to dose reduction of trial drug, %",45 mg,16.7%
same,"Subjects with any AE, %",45 mg,100%
same,"Subjects with investigator defined drug-related AEs, %",45 mg,100%
same,"Subjects with maximum CTC Grade 1, %",45 mg,0%
same,"Subjects with maximum CTC Grade 2, %",45 mg,33.3%
same,"Subjects with maximum CTC Grade 3, %",45 mg,50.0%
same,"Subjects with maximum CTC Grade 4, %",45 mg,16.7%
same,"Subjects with maximum CTC Grade 5, %",45 mg,0%
same,"Subjects with serious AEs, %",45 mg,50.0%
same,"AEs leading to Discontinuation: Dose limiting toxicity, %",60 mg,0%
same,"AEs leading to Discontinuation: Other adverse event, %",60 mg,0%
same,"Patients with Dose limiting toxicity, %",60 mg,66.7%
same,"Serious AEs: Cogenital Anomaly or Birth Defect, %",60 mg,0%
same,"Serious AEs: Is Life Threatening, %",60 mg,0%
same,"Serious AEs: Other Medically Important Serious Event, %",60 mg,0%
same,"Serious AEs: Persists of Signif. Disability/Incapacity, %",60 mg,0%
same,"Serious AEs: Requires or Prolongs Hospitalization, %",60 mg,66.7%
same,"Serious AEs: Results in Death, %",60 mg,0%
same,"Subjects with AEs leading to Discontinuation of trial drug, %",60 mg,0%
same,"Subjects with AEs leading to dose reduction of trial drug, %",60 mg,66.7%
same,"Subjects with any AE, %",60 mg,100%
same,"Subjects with investigator defined drug-related AEs, %",60 mg,100%
same,"Subjects with maximum CTC Grade 1, %",60 mg,0%
same,"Subjects with maximum CTC Grade 2, %",60 mg,0%
same,"Subjects with maximum CTC Grade 3, %",60 mg,33.3%
same,"Subjects with maximum CTC Grade 4, %",60 mg,66.7%
same,"Subjects with maximum CTC Grade 5, %",60 mg,0%
same,"Subjects with serious AEs, %",60 mg,66.7%
same,"AEs leading to Discontinuation: Dose limiting toxicity, %",Total,0%
same,"AEs leading to Discontinuation: Other adverse event, %",Total,4.0%
same,"Patients with Dose limiting toxicity, %",Total,12.0%
same,"Serious AEs: Cogenital Anomaly or Birth Defect, %",Total,0%
same,"Serious AEs: Is Life Threatening, %",Total,0%
same,"Serious AEs: Other Medically Important Serious Event, %",Total,12.0%
same,"Serious AEs: Persists of Signif. Disability/Incapacity, %",Total,4.0%
same,"Serious AEs: Requires or Prolongs Hospitalization, %",Total,28.0%
same,"Serious AEs: Results in Death, %",Total,0%
same,"Subjects with AEs leading to Discontinuation of trial drug, %",Total,4.0%
same,"Subjects with AEs leading to dose reduction of trial drug, %",Total,24%
same,"Subjects with any AE, %",Total,100%
same,"Subjects with investigator defined drug-related AEs, %",Total,92.0%
same,"Subjects with maximum CTC Grade 1, %",Total,20.0%
same,"Subjects with maximum CTC Grade 2, %",Total,36.0%
same,"Subjects with maximum CTC Grade 3, %",Total,28.0%
same,"Subjects with maximum CTC Grade 4, %",Total,16.0%
same,"Subjects with maximum CTC Grade 5, %",Total,0%
same,"Subjects with serious AEs, %",Total,36.0%
same,"Subjects with AEs leading to dose reduction of trial drug, %","Total, listed as Comp. I",24.0%
same,"AE alopecia, patients","Arm B, all 25 patients",24.0%
same,"AE decreased appetite, patients","Arm B, all 25 patients",40.0%
same,"AE diarrhea, patients","Arm B, all 25 patients",44.0%
same,"AE fatigue, patients","Arm B, all 25 patients",52.0%
same,"AE nausea, patients","Arm B, all 25 patients",92.0%
same,"AE platelet count decreased, patients","Arm B, all 25 patients",28.0%
same,"AE vomiting, patients","Arm B, all 25 patients",64.0%
same,"Grade 3 AE anemia, patients","Arm B, all 25 patients",8.0%
same,"Grade 3 AE platelet count decreased, patients","Arm B, all 25 patients",8.0%
same,"Grade 4 AE neutrophil count decreased, patients","Arm B, all 25 patients",8.0%
same,"Grade 4 AE platelet count decreased, patients","Arm B, all 25 patients",8.0%
same,"SAE platelet count decreased, patients","Arm B, all 25 patients",8.0%
same,"dose reduction due to diarrhea, patients","Arm B, all 25 patients",4.0%
same,"dose reduction due to neutropenia and/or thrombocytopenia, patients","Arm B, all 25 patients",20.0%
same,"drug-related AE alopecia, patients","Arm B, all 25 patients",24.0%
same,"drug-related AE decreased appetite, patients","Arm B, all 25 patients",28.0%
same,"drug-related AE diarrhea, patients","Arm B, all 25 patients",32.0%
same,"drug-related AE fatigue, patients","Arm B, all 25 patients",40.0%
same,"drug-related AE nausea, patients","Arm B, all 25 patients",76.0%
same,"drug-related AE platelet count decreased, patients","Arm B, all 25 patients",28.0%
same,"drug-related AE vomiting, patients","Arm B, all 25 patients",60.0%
same,fatal AEs,"Arm B, all 25 patients",No fatal AEs were reported
